This is an account of results in patent US20080319175A1, “Transthyretin Stabilization” (The Scripps Research Institute, priority 2004, published 2008).

Data set [1] in a line: precipitation of small molecule under acid-mediated amyloidogenic conditions in the absence of TTR. Format: physicochemical. To be noted: 3.6 μM, pH 4.4, 37° C., 72 h. On the procedure: TTR amyloid inhibition efficacy was probed using a stagnant fibril formation assay described previously, wherein partial denaturation was triggered by acidification (pH 4.4, 37° C.) (Colon, W.; Kelly, J. W. Biochemistry 1992, 31, 8654-8660). Briefly, a test compound (7.2 or 3.6 μM) is incubated with TTR (3.6 μM) for 30 min in pH 7 buffer. Amyloidogenesis is then initiated by lowering to pH 4.4, where maximal fibril formation is observed with WT-TTR after 72 h (37° C.). The turbidity in the presence of a potential inhibitor (Ttest) is compared to that of a solution lacking a test compound (Tcontrol). […] From experience we know that excellent inhibitors allow <10% fibril formation at a small molecule concentration of 7.2 μM and <40% fibril formation at a concentration equal to that of WT-TTR (3.6 μM) (Hammarstrom, P.; et al. Science 2003, 299, 713-716; Klabunde, T.; et al. Nature Struct. Biol. 2000, 7, 312-321; Razavi, H.; et al. Angew Chem 2003, 42, 2758-2761; Miroy, G. J.; et al. Proc. Natl. Acad. Sci. USA 1996, 93, 15051-15056; Peterson, S. A.; et al. Proc. Natl. Acad. Sci. USA 1998, 95, 12956-12960; Baures, P. W.; et al. Bioorg. Med. Chem. 1998, 6, 1389-1401; Baures, P. W.; et al. Bioorg. Med. Chem. 1999, 7, 1339-1347; Petrassi, H. M.; et al. J. Am. Chem. Soc. 2000, 122, 2178-2192; McCammon, M. G.; et al. Structure 2002, 10, 851-863; Oza, V. B.; et al. J. Med. Chem. 2002, 45, 321-332; Sacchettini, J. C.; et al. Nature Rev. Drug Disc. 2002, 1, 267-275; Green, N. S.; et al. J. Am. Chem. Soc. 2003, 125, 13404-13414; Adamski-Werner, S. L.; et al. J. Med. Chem. 2004, 47, 355-374; Miller Sean, R.; et al. Lab. Inv. 2004, 84, 545-552). […] Therefore, when both the ligand and TTR are at equal concentrations, a population of TTR•I, TTR•I2 and unliganded TTR is observed, dictated by the dissociation constants. It is now established by other studies that inhibitor occupancy of only one of the two TTR binding sites is sufficient to stabilize the entire tetramer against amyloidogenesis (Wiseman, R. L.; et al. J. Am. Chem. Soc. 2005, in press). This is further supported by the observation herein that twenty-six of these dibenzofurans are excellent TTR amyloidogenesis inhibitors (<40% fibril formation) at a concentration equal to that of TTR (3.6 μM each, FIG. 3).

Data set [2] concerns the target T1, WT-TTR (Homo sapiens, UniProt P02766).
T1 construct: made in house
In words: time course analysis of WT-TTR tetramer dissociation in urea (far-UV CD). The class given is biochemical. The settings on record: for rate of TTR tetramer dissociation monitored by far-UV CD: 6M urea, TTR 3.6 μM, inhibitor 7.2 and 3.6 μM; for rank in tetramer dissociation time course at the end of the plot: after 169 hours, 6.0 M urea, WT-TTR 3.6 μM. From the text: (§1) The ability of these inhibitors to impose kinetic stability on tetrameric TTR is best evaluated by assessing the rate of TTR tetramer dissociation (Hammarstrom, P.; et al. Science 2003, 299, 713-716; Hammarstrom, P.; et al. Proc. Natl. Acad. Sci. USA 2002, 99, 16427-16432). Under acidic conditions tetramer dissociation leads to amyloidogenesis, whereas in the presence of chaotropes (6M urea), tetramer dissociation leads to monomer unfolding. The influence of inhibitors 25, 47 and 64, representing the three structural classes of dibenzofuran-based inhibitors, on the rates of tetramer dissociation under acid- and urea-mediated denaturing conditions was probed. […] The rate of TTR tetramer dissociation in 6M urea is easily monitored by linking the slow quaternary structural changes to rapid tertiary structural changes that are easily monitored by spectroscopic methods (Hammarstrom, P.; et al. Proc. Natl. Acad. Sci. USA 2002, 99, 16427-16432).
Time course analysis of WT-TTR tetramer dissociation inhibition by compounds 25, 47, and 64 evaluated by linked-monomer unfolding in urea. Compounds 25, 47, and 64 were dissolved in DMSO to provide 10 mM primary stock solutions, from which 10-fold EtOH dilutions yielded 1 mM secondary stock solutions. 200 μL of 1.0 mg/mL (18 μM) WT-TTR solution (50 mM sodium phosphate, 100 mM KCl, and 1 mM EDTA, pH 7.2), and either 7.2 or 3.6 μL (2× and 1×, respectively) of 1 mM inhibitor secondary stock solutions were added to 2 mL eppendorf tubes, vortexed briefly, and incubated for 15 min at 25° C. 100 μL of the TTR•inhibitor solutions were added to 900 μL of urea buffer (6.67 M urea, 50 mM sodium phosphate, 100 mM KCl, 1 mM EDTA, pH 7.2), and the final 1 mL solutions were vortexed again and incubated in the dark at 25° C. without agitation. At 0, 4, 11, 24, 49, 73, 97, 122, 146, and 170 h time points after mixing with urea, the circular dichroism spectra were measured between […], with scanning every 0.5 nm and averaging for 5 s. After measurements were taken, samples were returned to their respective eppendorf tubes and incubation was continued. Control samples containing 7.2 μL of 10% DMSO in EtOH were prepared and analyzed as above for comparison. The CD amplitude values were averaged between 215 and 218 nm to determine the extent of β-sheet loss throughout the experiment. TTR tetramer dissociation is linked to the rapid (˜500,000× faster) monomer denaturation as measured through this β-sheet loss (Hammarstrom, P.; et al. Proc. Natl. Acad. Sci. USA 2002, 99, 16427-16432).
FIG. 11 is a plot of the timecourse analysis of WT-TTR (3.6 μM) tetramer dissociation (6.0 M urea) in the absence (▴) and presence of 7.2 μM (⋄) and 3.6 μM (∘) concentrations of inhibitors 25, 47, and 64 (see color scheme within Figure to differentiate inhibitors). Slow tetramer dissociation is not detectable by far-UV CD spectroscopy, but this process is linked to rapid (˜500,000× faster) monomer denaturation as monitored by loss of β-sheet content easily followed by circular dichroism spectroscopy. It is hard to discern which compound is most efficacious in the black and white plot.

Data set [3] deals with T1, WT-TTR. In words: time course analysis of WT-TTR fibril formation inhibition (turbidity at 500 nm). The class given is biochemical. To be noted: WT-TTR 3.6 μM; for TTR amyloidogenesis mediated by partial acidification relative to control: inhibitor 7.2 and 3.6 μM, pH 4.4.
Excerpt: as §1
Time course analysis of WT-TTR fibril formation inhibition by compounds 25, 47, and 64. Compounds 25, 47, and 64 were dissolved in DMSO to provide 7.2 mM primary stock solutions (10× stocks), from which 5- and 10-fold DMSO dilutions yielded 1.44 mM (2×) and 0.72 mM (1×) secondary stock solutions, respectively. 495 μL of 0.4 mg/mL (7.2 μM) WT-TTR solution (10 mM sodium phosphate, 100 mM KCl, and 1 mM EDTA, pH 7.2), and 5 μL of either the 1.44 or 0.72 mM inhibitor secondary stock solutions were added to disposable UV cuvettes, vortexed briefly, then incubated for 30 min at 25° C. The pH was then adjusted to 4.4 with addition of 500 μL of acidic buffer (100 mM acetate, 100 mM KCl, 1 mM EDTA, pH 4.2), and the final 1 mL solutions were vortexed again and incubated in the dark at 37° C. without agitation. At 0, 4, 8, 12, 25, 49, 74, 100, 122, 145, and 169 h time points after acidification, the solutions were vortexed and the turbidity at 500 nm was measured. Control samples containing 5 μL of pure DMSO were prepared and analyzed as above for comparison. Small molecule and TTR control samples were prepared in groups of 10 to prevent disturbance of the cuvettes during incubation. Samples were discarded after their turbidities were measured.
FIG. 10 is a plot of the timecourse analysis of WT-TTR (3.6 μM) fibril formation mediated by partial acid denaturation in the absence (▴) and presence of 7.2 μM (⋄) and 3.6 μM (∘) inhibitors 25, 47, and 64, as measured by turbidity at 500 nm (see color scheme within Figure to differentiate inhibitors). It is hard to discern which compound is most efficacious in the black and white plot.

Turning to `O=C(O)c1cccc2c1oc1c(C(=O)O)ccc(Nc3ccccc3C(F)(F)F)c12` [Compound 25], the “precipitation of compound in the absence of TTR” value in data set [1] was “no measurable precipitation”. In data set [2], the “rate of TTR tetramer dissociation monitored by far-UV CD” value (from here on “rate”) is given as “markedly slowed in a dose-dependent fashion” and the “rank in tetramer dissociation time course at the end of the plot” value is recorded as “most effective in dissociating tetramers”. The “TTR amyloidogenesis mediated by partial acidification relative to control” value in data set [3] is “dramatically slowed in a dose-dependent fashion”.
As for `O=C(O)c1cccc2c1oc1c(C(=O)O)ccc(-c3cc(C(F)(F)F)cc(C(F)(F)F)c3)c12` [Compound 64], in data set [2], the “rate” value was “markedly slowed in a dose-dependent fashion” and the “rank in tetramer dissociation time course at the end of the plot” value is recorded as “followed by compound 64”. Further, the “TTR amyloidogenesis mediated by partial acidification relative to control” value in data set [3] was “dramatically slowed in a dose-dependent fashion”.
`O=C(O)c1cccc2c1oc1c(C(=O)O)ccc(Oc3cc(Cl)cc(Cl)c3)c12` [Compound 47]: the “precipitation of compound in the absence of TTR” value in data set [1] was “no measurable precipitation”. The “rate” value in data set [2] was “markedly slowed in a dose-dependent fashion”. For the same compound, the “rank by fibrils formed at the end of the time course” value in data set [3] (after 169 hours, partial acid denaturation) was “shows the most fibrils formed”. For the same compound, the “TTR amyloidogenesis mediated by partial acidification relative to control” value in data set [3] is given as “dramatically slowed in a dose-dependent fashion”.
